Experimental data as given in patent US20060276340A1, “HERBICIDE COMPOSITION COMPRISING PYRIBAMBENZ-PROPYL OR PYRIBAMBENZ-ISOPROPYL” (Zhejiang Chem-Tech Group Co., Ltd., priority 2003, published 2006).

Key:
Type in all cases: in vivo
Poa annua [1] = assay: greenhouse pot test, post-emergence treatment; conditions: POAAN
Procedure: (§1) The test soil is a formulated sandy loam soil. 9.5 centimeter diameter pots are used for herbicidal activity test.
(§2) The pots for post-emergence treatment are placed into a greenhouse and incubated for 7 to 9 days, and then subjected to leave treatment by spraying. The preparation liquid for the treatment prepared by mixing individual single-herbicides was diluted with water to the desired dosage.
(§3) The treated pots stood for one day, then were placed in a greenhouse and watered regularly. The herbicidal activities of the compositions were evaluated by visual examination after incubating for 14 to 21 days.
(§4) The herbicidal activities of the compositions were evaluated by plant symptoms such as stunting, deformity, chlorosis, and whitening. 0 represents that the compositions have no herbicidal effect or have safety to crops. 100 represents that the weeds or crops were completely killed.

Galium aparine [2] = assay: greenhouse pot test, post-emergence treatment
Procedure: as §1, §2, §3, §4

Alopercurus japonicus = assay: greenhouse pot test, post-emergence treatment; conditions: ALOJA
Procedure: as §1, §2, §3, §4

Veronica didyma = assay: greenhouse pot test, post-emergence treatment; conditions: VERDI
Procedure: as §1, §2, §3, §4

Cerastium arvense [3] = assay: greenhouse pot test, pre-emergence treatment; conditions: CERAR
Procedure: as §1
(§5) The soil in the pot for the pre-emergence test was sprayed one day after planting. The preparation liquid for the treatment prepared by mixing individual single-herbicides was diluted with water to the desired dosage.
as §3, §4

Galium aparine [4] = assay: greenhouse pot test, pre-emergence treatment; conditions: GALAP
Procedure: as §1, §5, §3, §4

Polypogon fugax [5] = assay: greenhouse pot test, pre-emergence treatment; conditions: POLFU
Procedure: as §1, §5, §3, §4

Alopecurus aequalis [6] = assay: greenhouse pot test, pre-emergence treatment; conditions: ALOAE
Procedure: as §1, §5, §3, §4

Cerastium arvense [7] = assay: greenhouse pot test, post-emergence treatment; conditions: CERAR 6 leaves
Procedure: as §1, §2, §3, §4

Polypogon fugax [8] = assay: greenhouse pot test, post-emergence treatment; conditions: POLFU 4˜4.5 leaves
Procedure: as §1, §2, §3, §4

Alopecurus aequalis [9] = assay: greenhouse pot test, post-emergence treatment; conditions: ALOAE 3 leaves
Procedure: as §1, §2, §3, §4

Poa annua [10] = assay: greenhouse pot test, post-emergence early stage treatment; conditions: POAAN 2˜3 leaves
Procedure: as §1, §2, §3, §4

Cerastium arvense [11] = assay: as above; conditions: CERAR 3˜4 leaves
Procedure: as §1, §2, §3, §4

Galium aparine [12] = assay: as above; conditions: GALAP 7˜8 leaves
Procedure: as §1, §2, §3, §4

Beckmannia syzigachne = assay: as above; conditions: BECSY 2˜3 leaves
Procedure: as §1, §2, §3, §4

weeds in rape field = assay: weed control in rape field, descriptive statements

O=C(O)Cn1c(=O)sc2cccc(Cl)c21 [benazolin]
visual evaluation of weed effects (Poa annua [1]; 75 g/ha): 0%
visual evaluation of weed effects (Poa annua [1]; 150 g/ha): 0%
visual evaluation of weed effects (Poa annua [1]; 225 g/ha): 0%
visual evaluation of weed effects (Poa annua [1]; 300 g/ha): 0%
visual evaluation of weed effects (Galium aparine [2]; GALAP, 75 g/ha): 70%
visual evaluation of weed effects (Galium aparine [2]; GALAP, 150 g/ha): 90%
visual evaluation of weed effects (Galium aparine [2]; GALAP, 225 g/ha): 100%
visual evaluation of weed effects (Galium aparine [2]; GALAP, 300 g/ha): 100%
visual evaluation of weed effects (Alopercurus japonicus; 75 g/ha): 0%
visual evaluation of weed effects (Alopercurus japonicus; 150 g/ha): 0%
visual evaluation of weed effects (Alopercurus japonicus; 225 g/ha): 0%
visual evaluation of weed effects (Alopercurus japonicus; 300 g/ha): 0%
visual evaluation of weed effects (Veronica didyma; 75 g/ha): 60%
visual evaluation of weed effects (Veronica didyma; 150 g/ha): 90%
visual evaluation of weed effects (Veronica didyma; 225 g/ha): 98%
visual evaluation of weed effects (Veronica didyma; 300 g/ha): 100%

CCOc1nc(NC)nc(NC(=O)NS(=O)(=O)c2ccccc2C(=O)O)n1 [ethametsulfuron]
visual evaluation of weed effects (Cerastium arvense [3]; 6 g/ha): 85%
visual evaluation of weed effects (Cerastium arvense [3]; 7.5 g/ha): 90%
visual evaluation of weed effects (Cerastium arvense [3]; 9 g/ha): 95%
visual evaluation of weed effects (Galium aparine [4]; 6 g/ha): 10%
visual evaluation of weed effects (Galium aparine [4]; 7.5 g/ha): 40%
visual evaluation of weed effects (Galium aparine [4]; 9 g/ha): 70%
visual evaluation of weed effects (Polypogon fugax [5]; 6 g/ha): 60%
visual evaluation of weed effects (Polypogon fugax [5]; 7.5 g/ha): 70%
visual evaluation of weed effects (Polypogon fugax [5]; 9 g/ha): 75%
visual evaluation of weed effects (Alopecurus aequalis [6]; 6 g/ha): 80%
visual evaluation of weed effects (Alopecurus aequalis [6]; 7.5 g/ha): 90%
visual evaluation of weed effects (Alopecurus aequalis [6]; 9 g/ha): 95%
visual evaluation of weed effects (Cerastium arvense [7]; 6 g/ha): 90%
visual evaluation of weed effects (Cerastium arvense [7]; 7.5 g/ha): 90%
visual evaluation of weed effects (Cerastium arvense [7]; 9 g/ha): 90%
visual evaluation of weed effects (Galium aparine [2]; GALAP 7˜8 leaves, 6 g/ha): 85%
visual evaluation of weed effects (Galium aparine [2]; GALAP 7˜8 leaves, 7.5 g/ha): 90%
visual evaluation of weed effects (Galium aparine [2]; GALAP 7˜8 leaves, 9 g/ha): 90%
visual evaluation of weed effects (Polypogon fugax [8]; 6 g/ha): 60%
visual evaluation of weed effects (Polypogon fugax [8]; 7.5 g/ha): 60%
visual evaluation of weed effects (Polypogon fugax [8]; 9 g/ha): 70%
visual evaluation of weed effects (Alopecurus aequalis [9]; 6 g/ha): 90%
visual evaluation of weed effects (Alopecurus aequalis [9]; 7.5 g/ha): 90%
visual evaluation of weed effects (Alopecurus aequalis [9]; 9 g/ha): 90%
visual evaluation of weed effects (Poa annua [10]; ethametsulfuron 6 g/ha): 70%
visual evaluation of weed effects (Poa annua [10]; ethametsulfuron 9 g/ha): 80%
visual evaluation of weed effects (Cerastium arvense [11]; ethametsulfuron 6 g/ha): 90%
visual evaluation of weed effects (Cerastium arvense [11]; ethametsulfuron 9 g/ha): 90%
visual evaluation of weed effects (Galium aparine [12]; ethametsulfuron 6 g/ha): 90%
visual evaluation of weed effects (Galium aparine [12]; ethametsulfuron 9 g/ha): 90%
visual evaluation of weed effects (Beckmannia syzigachne; ethametsulfuron 6 g/ha): 40%
visual evaluation of weed effects (Beckmannia syzigachne; ethametsulfuron 9 g/ha): 40%
weed control (weeds in rape field; grass weeds): rather moderate control
weed control (weeds in rape field; most of broadleaf weeds): remarkable control
